Usually EC50 stands for the concentration that produces a half-maximal response.

Each structure is given as a SMILES string. Where two headings read alike, the source gives them in different places.

The target in the test is T1, β2-AR (Mus musculus, UniProt P18762).
T1 construct: gene Adrb2
As to the kind of experiment: GloSensor cAMP concentration-response in B16F10 cells (endogenous receptor), agonist. Type of test: cell-based.

T1 sequence (P18762 whole entry): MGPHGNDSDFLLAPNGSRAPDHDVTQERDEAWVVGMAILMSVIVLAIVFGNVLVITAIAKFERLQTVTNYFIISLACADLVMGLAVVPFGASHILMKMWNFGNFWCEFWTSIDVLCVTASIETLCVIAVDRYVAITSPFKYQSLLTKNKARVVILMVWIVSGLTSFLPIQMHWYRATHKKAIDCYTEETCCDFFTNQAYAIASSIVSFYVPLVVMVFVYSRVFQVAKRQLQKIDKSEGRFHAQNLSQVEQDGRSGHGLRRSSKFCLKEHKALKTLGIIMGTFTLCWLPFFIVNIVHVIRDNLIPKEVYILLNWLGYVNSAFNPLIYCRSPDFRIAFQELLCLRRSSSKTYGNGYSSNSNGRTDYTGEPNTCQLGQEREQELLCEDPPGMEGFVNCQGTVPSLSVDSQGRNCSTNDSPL

In the case of `CNC[C@H](O)c1ccc(O)c(O)c1` [EPI, epinephrine], the midpoint of the response, the EC50, lay at 0.045 µM.
Take `NC[C@H](O)c1ccc(O)c(O)c1` [NE, norepinephrine]: the 50% effective concentration (EC50) (read-out: EC50) amounted to 0.284 µM.

(Values after PMC9100920, “Crosstalk between β2- and α2-Adrenergic Receptors in the Regulation of B16F10 Melanoma Cell Proliferation” (International Journal of Molecular Sciences, 2022).)
